This is an account of results in PubChem BioAssay AID179 (DTP/NCI, 2004).

pEC50, pIC50: −log10 of the molar value. Several values for one entry are separate records, joined by “and”; a condition that tells them apart may be missing. Equal entries are not always repeated. Activity calls are given as the source filed them.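 The calls were made as follows: active = compounds giving half or more protection of infected cells from virus-caused growth loss, again on retest; inactive = the rest.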

For this experiment, the system named is CEM cells HIV-1 protection, formazan growth assay. The experiment can be described thus: NCI AIDS Antiviral Assay. As to conditions: for pIC50: measured here: growth of uninfected CEM cells. The method in brief:
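Protection of CEM cells against HIV-1 measured as cell growth via soluble formazan read-out, with five concentrations tested on both infected and uninfected cells; failure to protect may reflect toxicity.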

As a reminder, the pEC50 is the negative decadic logarithm of the EC50, by convention in mol/L. The term pIC50 denotes −log10 of the IC50, conventionally taken in molar units. Take `COc1ccc(/C=C/c2ccc3ccccc3n2)cc1OC`: the pEC50 is less than 3.70 and the pIC50 was 4.44. In the same order, the values of `Cc1nc2c(N)ncnc2o1` are less than 5.02 and less than 5.02. Taken in the same sequence, the figures for `COc1ccccc1C(=O)[O][Sn]([c]1ccccc1)([c]1ccccc1)[c]1ccccc1` were less than 5.70 and 6.66. For the compound `CC1(C)CC(=O)c2c(nc3c(ccc4ccccc43)c2-c2ccc(NC(=O)CCCCC(=O)Nc3ccc(-c4c5c(nc6c4ccc4ccccc46)CC(C)(C)CC5=O)cc3)cc2)C1`, the pEC50 was less than 4.00 and the pIC50 was 4.70. Taken in the same sequence, the figures for `CCCC1c2c(cc(=O)[nH]c2O)C(=O)N1Cc1ccccc1` (stereo not drawn) were less than 4.20 and less than 4.20.

For the compound `CCCn1c(=O)c2nn3c(=O)n(CCC)c(=O)c3nn2c1=O`, the pEC50 is less than 3.70 and the pIC50 is less than 3.70. Turning to `O=C1OC(c2ccccc2)=N/C1=C\c1ccc2ccccc2c1`, the pEC50 was less than 4.76 and the pIC50 was less than 4.76.

Take `O=c1[nH]c2cccccc-2c1-c1nc2ccccc2[nH]1`: the pEC50 was less than 3.86 and the pIC50 is less than 3.86. Turning to `O=C(CCCCCCCCC(=O)NCC1(c2ccccc2)CCNCC1)NCC1(c2ccccc2)CCNCC1`, the pEC50 is less than 4.00 and the pIC50 was less than 4.00. Take `O=C(Nn1c(-c2ccccc2)nc2ccccc2c1=O)c1cccc([N+](=O)[O-])c1`: the pEC50 was less than 3.70 and the pIC50 was 3.78. As to `CC(=O)Oc1c(OC(C)=O)c(C=O)c2c(OC(C)=O)c(-c3c(C)cc4c(C(C)C)c(OC(C)=O)c(OC(C)=O)c(C=O)c4c3OC(C)=O)c(C)cc2c1C(C)C`, the pEC50 was less than 3.70 and the pIC50 is 5.05. In the same order, the values of `CSC(SC)=C1C(=O)NN=C1C` are less than 3.70 and less than 3.70.

As to `O=C(C[C@@H]1CCCN2CCCC[C@H]12)N1c2ccccc2Sc2ccc(Cl)cc21`, the pEC50 is less than 3.70 and the pIC50 is 4.68. In the same order, the values of `Cc1cccc(CC(Cc2c(C)cccc2C(=O)O)C(=O)O)c1` (stereo not drawn) are less than 3.70 and less than 3.70. Regarding `CSC1=Nc2ccccc2-c2nc3ccccc3cc2C1`, the outcome was inactive. The same measure, in the same setting: the value for `[N-]=[N+]=NCC(CO)OCn1cc(Cc2cccc(OCc3ccccc3)c2)c(=O)[nH]c1=O` (stereo not drawn) was “inactive”. On to `CCOP(=O)(OCC)/C(=C/n1c(=S)[nH]c2ccccc21)C(=O)OC`, for which the pEC50 is less than 3.70 and the pIC50 was less than 3.70. Turning to `O=C(NC12CC3CC(CC(F)(C3)C1)C2)c1ccccc1`, the pEC50 was less than 3.88 and the pIC50 was 4.28. Taken in the same sequence, the figures for `CC1=NNC(=O)C1C(CC(=O)c1c[nH]c2ccccc12)C(=O)O` (stereo not drawn) were less than 3.70 and 3.90. Taken in the same sequence, the figures for `COC(=O)c1cc(Cc2cc(C(=O)OC)c(OC)c(C(F)(F)F)c2)cc(C(F)(F)F)c1OC` were less than 3.70 and 4.59. Taken in the same sequence, the figures for `CC(=O)OCC1OC(n2c(-c3ccccc3)c(N=Nc3ccc(C)cc3)c(C)c(C#N)c2=S)C(OC(C)=O)C(OC(C)=O)C1OC(C)=O` (stereo not drawn) were 3.71 and less than 3.70. For the compound `CC1(C)C2CCC3CC(CCC#N)CCC3C21C#N` (stereo not drawn), the pEC50 was less than 3.70 and the pIC50 was 4.02. Regarding `O=c1[nH]c(Nc2cccc(CO)c2)nc2nc[nH]c12`, the pEC50 is less than 3.70 and the pIC50 was less than 3.70. Take `c1cncc(CN2CCCCCC2)c1`: the outcome was inactive. For `Brc1ccc(-c2ccc3nnnn3n2)s1`, the pEC50 is less than 3.70 and the pIC50 is less than 3.70. Regarding `O=P(O)(O)OC1C(OP(=O)(O)O)C(OP(=O)(O)O)C(OP(=O)(O)O)C(OP(=O)(O)O)C1OP(=O)(O)O` (stereo not drawn), the pEC50 is less than 3.70 and the pIC50 was less than 3.70. In the case of `CC(=O)c1ccc2c3c(ccc([N+](=O)[O-])c13)C(=O)OC2=O`, the pEC50 was less than 3.70 and the pIC50 was 4.51. Regarding `COc1cc(O)c(C(C)=O)c(O)c1`, the pEC50 was less than 3.70 and the pIC50 was 4.72. Taken in the same sequence, the figures for `O=C/C1=C/C2=Cc3ccccc3C=C(/C=C(/C=O)C1)C2` were less than 4.00 and 4.36. `CC(C)C1CN(C(=O)OCc2ccccc2)C2N1C(=O)C2(C)OCc1ccccc1` (stereo not drawn): the pEC50 was less than 3.60 and the pIC50 was 4.01. Taken in the same sequence, the figures for `CSCC(NP1(=O)SC(NN=C(C)C)=NC1(C)C)C(=O)O` (stereo not drawn) were less than 3.15 and less than 3.15. Taken in the same sequence, the figures for `CN(C)c1cc2ccccc2oc1=O` were less than 3.16 and less than 3.16. Taken in the same sequence, the figures for `O=C1CSC(c2ccc([N+](=O)[O-])cc2)N1c1ccc(-c2ccc(-n3c(-c4ccccc4)nc4ccccc4c3=O)cc2)cc1` (stereo not drawn) were less than 3.70 and 4.40. Regarding `C=CCC1(C(C)C(O)c2cc(OC)c(OC)c(OC)c2)CC(O)C=CC12OCCO2` (stereo not drawn), the pEC50 was less than 3.70 and the pIC50 is 5.04. For the compound `C(=C\C(Sc1ccccc1)c1ccccc1)/NNC1=NC(c2ccccc2)C(c2ccccc2)=NN1` (stereo not drawn), the pEC50 is less than 4.83 and the pIC50 is less than 4.83. Take `CCCCNC1=C(C(=O)OCC)/C(=N/NC(=O)c2ccccc2O)CO1`: the pEC50 is less than 4.08 and the pIC50 was 4.88.

As to `CCc1cccc(C(C)C)c1NC(=O)C(=O)C(c1ccccc1)S(=O)(=O)Cc1ccccc1` (stereo not drawn), the pEC50 was less than 3.70 and the pIC50 is less than 3.70. Take `CC(C)(C)OC(=O)NC(CSSCC(NC(=O)OC(C)(C)C)C(=O)O)C(=O)O` (stereo not drawn): the pEC50 was less than 3.70 and the pIC50 is less than 3.70.

With `O=C1NC(Nc2ccccc2)=NC(C(F)(F)F)(C(F)(F)F)N1`, the pEC50 is less than 3.70 and the pIC50 was 4.44. Taken in the same sequence, the figures for `COc1ccc(CC[N+](C)(C)C)cc1` were less than 3.70 and less than 3.70. In the same order, the values of `O=C1CCCc2sccc21` are less than 3.70 and less than 3.70. In the same order, the values of `C/C=C(\C)C(=O)N1c2ccccc2CC1c1c(C)[nH]c2ccccc12` (stereo not drawn) are less than 4.66 and 5.16. For the compound `N#CC(Nc1cccc(C(F)(F)F)c1)c1ccccc1C(F)(F)F` (stereo not drawn), the pEC50 was less than 4.40 and the pIC50 is less than 4.40. In the case of `CNc1cc(Cl)ccc1C(=O)N1CCC[C@H]1CO`, the pEC50 was less than 3.70 and the pIC50 was 3.72.

As for `N#C/C(=C\c1ccc(Cl)cc1)c1nc(-c2cc3ccccc3oc2=O)cs1`, the pEC50 is less than 3.82 and the pIC50 is less than 3.82. `CC(C)=CCc1cc(C2CC(=O)c3c(O)cc(O)cc3O2)cc(CC=C(C)C)c1O` (stereo not drawn): the result was inactive.

On to `Cc1cc(Cl)nc2nc(Cl)c(N)cc12`, for which the outcome was inactive. For the compound `CC(C)[C@H]1CO[C@@H]2O[C@H](C)C(C)C(=O)N21` (stereo partly drawn), the pEC50 is less than 2.93 and the pIC50 was less than 2.93. For `CC1=CC(/C=C(\C)CCCc2ccoc2)C2(OC(=O)C(C)=C2O)[C@H]2C1CC[C@@H]2C` (stereo partly drawn), the result was inactive. Take `S=c1[nH][nH]c(=S)s1`: the pEC50 is 3.54 and the pIC50 was 3.30. As to `N#Cc1cc(NC(=O)c2ccccc2)c(=O)n2c1[nH]c1ccccc12`, the outcome was inactive. Consider `Cc1c2c(n3c(nc4ccccc43)c1C#N)NCC2`, for which the pEC50 is less than 3.70 and the pIC50 is less than 3.70. In the case of `CCOC(=O)/C(=C\c1cccc([N+](=O)[O-])c1)[Se]c1ccccc1`, the pEC50 was less than 4.58 and the pIC50 was 4.97.

With `N#Cc1c(-c2ccc([N+](=O)[O-])cc2)c(C#N)c(=O)n(NS(=O)(=O)c2ccccc2)c1O`, the pEC50 is less than 3.70 and the pIC50 was less than 3.70. `CCCCCCNCCCNc1c2cc(OC)ccc2nc2cccc([N+](=O)[O-])c12`: the pEC50 was less than 5.70 and the pIC50 is 6.46. As to `N#C/C(=C\c1ccc2c(c1)OCO2)c1ccccc1`, the pEC50 is less than 3.70; the pIC50 is 4.38 and < 4.54.

Turning to `N#CCCN(CCC#N)c1ccc(/C=C2\N=C(c3ccccc3)N(c3ccc(Cl)cc3)C2=O)cc1`, the pEC50 was less than 3.70 and the pIC50 was less than 3.70. Turning to `COc1ccc([P+](Cc2ccccc2)(c2ccccc2)c2ccc3ccccc3c2)cc1` (stereo not drawn), the pEC50 is less than 3.70 and the pIC50 is 6.10. With `Cc1c2c(cc3c1C(=O)C(=O)C1=C3OCC1C)C(C)(C)CCC2` (stereo not drawn), the result was inactive. Take `S=C1C(=Nc2ccccc2)N(c2ccccc2)/C(=N\c2ccccn2)N1c1ccccc1`: the pEC50 is less than 3.70 and the pIC50 is 5.20. Taken in the same sequence, the figures for `CC(NC(=O)OCc1ccccc1)NC(=O)OC(C)(C)C` (stereo not drawn) were less than 3.70 and 3.99.

In the case of `CC1(c2nc3cc(Cl)c(Cl)cc3[nH]2)CCC(CO)C(C)(C)O1` (stereo not drawn), the result was inactive. Still for that read-out and setting: for `Nc1nc2c(c(-c3ccccc3Cl)n1)COC/C2=C\c1ccccc1Cl` the value was “inactive”. For the compound `CC1=C(OC2OC(CO)C(O)C(O)C2O)C(=O)C[C@H]2C1=CC[C@@H]1[C@@]2(C)C(=O)C[C@]2(C)[C@@H]([C@@](C)(O)C(=O)CCC(C)(C)O)[C@H](O)C[C@@]12C` (stereo partly drawn), the pEC50 was less than 3.70 and the pIC50 was less than 3.70. As for `OCCN(CCO)CCCNc1ccnc2cc(Cl)ccc12`, the pEC50 is less than 3.70 and the pIC50 was 4.74. In the same order, the values of `COC(=O)[C@@H]1COC(CC/C(C)=C/c2ccccc2)=N1` are less than 3.70 and 4.35. In the case of `CCOC(=O)c1cc(-c2ccccc2)c(OC)c(=O)nc1-c1ccccc1`, the pEC50 is less than 4.56 and the pIC50 is less than 4.56. Regarding `COc1ccc2c(c1)C/C(=C\c1ccc(O)c(OC)c1)C2=O`, the pEC50 is less than 3.70 and the pIC50 was less than 3.70.

With `Cc1ccc2c(c1C)CC1(Cc3c(C)ccc(C)c3C1=O)C2=O` (stereo not drawn), the pEC50 is less than 4.00 and the pIC50 is less than 4.00. As for `COc1ccc(S(=O)(=O)N/N=C\c2cc([N+](=O)[O-])cc(I)c2O)c(OC)c1OC`, the pEC50 was less than 3.33 and the pIC50 was 4.17. With `COc1cc(C2C(O)N(C)C(=O)C23CCCN3C)c(Br)cc1Br` (stereo not drawn), the outcome was inactive.

For the compound `O=[n+]1cnn([O-])c2ccccc21`, the pEC50 is less than 3.70 and the pIC50 was 5.44.
